Experimental data: patent US12624019B2, “Indazole derivative, and preparation method therefor and use thereof” (Leadingtac Pharmaceutical (Shaoxing) Co., Ltd., priority 2020, dated 2026)

Columns and labels:
IKZF1 = molecular target: T1, IKZF1 (Homo sapiens, UniProt Q13422+Q96SW2); test: Degradation of IKZF1 in L363 cells by Western blot; type: cell-based; settings: compound 1000 nM, 16 hours
T1 construct: endogenous in cells; host or cells: L363 cells
Description: (§1) The 24-well cell culture plate was inoculated with 0.95 mL L363 cells (Nanjing Co-bioer) per well with a cell density of 6×10^5 cells/well. The cell plate was placed in a 5% carbon dioxide incubator and cultured at 37° C. for 8 hours, then 50 μL of compound solution was added. The final concentration of the compound was 1000 nM. After continuing to culture for 16 hours, the cells were collected into a 1.5 mL centrifuge tube and centrifuged at 3000 rpm and 4° C. for 5 minutes. Cell precipitation was washed twice with 1×DPBS, resuspended cells were lysed with 100 μL lysate (cell lysate was Western and IP cell lysate (Beyotime), supplemented with 1 mM mixture of phenylmethylsulfonyl fluoride and protease inhibitor (Beyotime)), left on ice for 30 minutes, then centrifuged at 14000 g at 4° C. for 10 minutes, and the supernatant was taken to detect IKZF1 and IKZF3 protein level by Western blot.
(§2) The total protein concentration in the supernatant of cell lysis was determined by BCA protein quantitative kit (Tiangen). According to the concentration of total protein detected by BCA, the supernatant was adjusted to […] with PBS and 5×SDS-PAGE protein loading buffer (Beyotime), bathed in water at 100° C. for 10 minutes, then placed in ice bath for 5 minutes, centrifuged at 14000 g and 4° C. for 5 minutes, and then collected as WB loading sample. Prefabricated glue (KeyGEN) was used for protein electrophoresis with a loading amount of 10 μL (total protein 2 μg). After Tris-MOPS-SDS electrophoresis solution (Adamas), 120V constant pressure electrophoresis was performed. After electrophoresis, the protein on the adhesive strip was transferred to PVDF membrane with a constant current of […] for 50 minutes. After the membrane was transferred, the membrane was incubated in 5% bovine serum albumin solution for 2 hours at room temperature. After blocking, PVDF membranes were incubated with IKZF1 primary antibody (CST) and IKZF3 primary antibody (Abcam) overnight at 4°, the membranes were washed with TBST buffer (2.4 g Tris, 8.8 g NaCl, 1.5 mL Tween 20, pH adjusted to 7.4, constant volume to 1 L) for 30 minutes, incubated with secondary antibody (Abcam) for 2 hours at room temperature, finally incubated with Clarity Western ECL Substrate (BIO-RAD) for 5 minutes for luminescence development, chemiluminescence imaging system (Clinx, chemiScope 6200 Touch) was used for development and protein mapping photography. The protein map was analyzed by Clinx chemiluminescence analysis software for grayscale values. Using the formula: grayscale correction value=(target protein grayscale value/corresponding internal reference grayscale value)×10^3, the grayscale correction value of each sample was calculated. The degradation rate was calculated by comparing with the grayscale correction value of the control group.

IKZF3 = molecular target: T2, IKZF3 (Homo sapiens, UniProt Q96SW2+Q9UKT9); test: Degradation of IKZF3 in L363 cells by Western blot; type: cell-based; settings: compound 1000 nM, 16 hours
T2 construct: endogenous in cells; host or cells: L363 cells
Description: as §1, §2

[1] = Pharmacokinetic study in mice; type: in vivo, SD mice
Description: The following experimental scheme was used to study the pharmacokinetic behavior of the compound of the present invention in mice and evaluate its pharmacokinetic characteristics.
Experimental scheme: 3 healthy SD mice, male, weighing […], were given 100 mg/kg compound by gavage with a volume of 10 mL/kg, prepared with […] (w/v). Before the test, they were fasted for 12 hours and freely drank water. Food was uniformly consumed 4 h after administration.
Three healthy SD mice, male, weighing […], were given 1 mg/kg compound intravenously with a volume of 5 mL/kg, prepared with 5% DMSO/15% solutol %80% PBS (w/v). Before the test, they were fasted for 12 hours and freely drank water. Food was uniformly consumed 4 h after administration.
0.1 mL of venous blood was taken through the submaxillary venous plexus of mice at 0.08 h, 0.25 h, 0.5 h, 1 h, 2 h, 4 h, 8 h, 24 h after gavage administration and 0.08 h, 0.25 h, 0.5 h, 1 h, 2 h, 4 h, 8 h, 24 h after intravenous administration, placed in a heparin test tube, centrifuged at 11000 rpm for 5 min, and plasma was separated, the concentration of compounds in plasma was determined by liquid chromatography-tandem mass spectrometry.

[2] = male, SD, mouse, po, gavage administration 100 mg/kg, plasma

T1 sequence (Q13422 whole entry): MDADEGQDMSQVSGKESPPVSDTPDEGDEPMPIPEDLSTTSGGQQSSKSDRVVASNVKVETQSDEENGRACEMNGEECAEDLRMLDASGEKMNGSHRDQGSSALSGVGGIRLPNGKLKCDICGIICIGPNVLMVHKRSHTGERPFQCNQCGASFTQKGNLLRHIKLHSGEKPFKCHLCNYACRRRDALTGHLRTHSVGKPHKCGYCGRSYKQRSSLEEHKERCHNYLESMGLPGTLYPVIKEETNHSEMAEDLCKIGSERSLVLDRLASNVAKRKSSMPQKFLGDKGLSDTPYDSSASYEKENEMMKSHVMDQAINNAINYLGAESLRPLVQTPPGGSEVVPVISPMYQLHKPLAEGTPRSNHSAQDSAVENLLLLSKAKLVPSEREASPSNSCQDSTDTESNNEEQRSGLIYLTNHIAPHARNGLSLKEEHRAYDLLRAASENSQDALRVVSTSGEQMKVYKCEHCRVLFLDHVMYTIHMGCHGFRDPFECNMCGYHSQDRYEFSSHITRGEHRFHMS
T1 sequence (Q96SW2 whole entry): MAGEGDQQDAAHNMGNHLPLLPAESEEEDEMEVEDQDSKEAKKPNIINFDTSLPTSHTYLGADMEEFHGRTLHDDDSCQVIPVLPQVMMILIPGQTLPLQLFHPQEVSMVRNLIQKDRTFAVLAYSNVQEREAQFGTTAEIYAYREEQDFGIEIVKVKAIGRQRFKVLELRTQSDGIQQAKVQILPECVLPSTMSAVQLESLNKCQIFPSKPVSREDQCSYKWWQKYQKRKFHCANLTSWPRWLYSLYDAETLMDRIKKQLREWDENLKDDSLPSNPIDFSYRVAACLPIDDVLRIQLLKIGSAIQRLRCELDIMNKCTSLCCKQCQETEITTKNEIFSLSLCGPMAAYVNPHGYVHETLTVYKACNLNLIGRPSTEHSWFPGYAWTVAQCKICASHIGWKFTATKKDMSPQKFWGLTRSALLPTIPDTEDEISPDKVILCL
T1 sequence (Q16531 whole entry partner): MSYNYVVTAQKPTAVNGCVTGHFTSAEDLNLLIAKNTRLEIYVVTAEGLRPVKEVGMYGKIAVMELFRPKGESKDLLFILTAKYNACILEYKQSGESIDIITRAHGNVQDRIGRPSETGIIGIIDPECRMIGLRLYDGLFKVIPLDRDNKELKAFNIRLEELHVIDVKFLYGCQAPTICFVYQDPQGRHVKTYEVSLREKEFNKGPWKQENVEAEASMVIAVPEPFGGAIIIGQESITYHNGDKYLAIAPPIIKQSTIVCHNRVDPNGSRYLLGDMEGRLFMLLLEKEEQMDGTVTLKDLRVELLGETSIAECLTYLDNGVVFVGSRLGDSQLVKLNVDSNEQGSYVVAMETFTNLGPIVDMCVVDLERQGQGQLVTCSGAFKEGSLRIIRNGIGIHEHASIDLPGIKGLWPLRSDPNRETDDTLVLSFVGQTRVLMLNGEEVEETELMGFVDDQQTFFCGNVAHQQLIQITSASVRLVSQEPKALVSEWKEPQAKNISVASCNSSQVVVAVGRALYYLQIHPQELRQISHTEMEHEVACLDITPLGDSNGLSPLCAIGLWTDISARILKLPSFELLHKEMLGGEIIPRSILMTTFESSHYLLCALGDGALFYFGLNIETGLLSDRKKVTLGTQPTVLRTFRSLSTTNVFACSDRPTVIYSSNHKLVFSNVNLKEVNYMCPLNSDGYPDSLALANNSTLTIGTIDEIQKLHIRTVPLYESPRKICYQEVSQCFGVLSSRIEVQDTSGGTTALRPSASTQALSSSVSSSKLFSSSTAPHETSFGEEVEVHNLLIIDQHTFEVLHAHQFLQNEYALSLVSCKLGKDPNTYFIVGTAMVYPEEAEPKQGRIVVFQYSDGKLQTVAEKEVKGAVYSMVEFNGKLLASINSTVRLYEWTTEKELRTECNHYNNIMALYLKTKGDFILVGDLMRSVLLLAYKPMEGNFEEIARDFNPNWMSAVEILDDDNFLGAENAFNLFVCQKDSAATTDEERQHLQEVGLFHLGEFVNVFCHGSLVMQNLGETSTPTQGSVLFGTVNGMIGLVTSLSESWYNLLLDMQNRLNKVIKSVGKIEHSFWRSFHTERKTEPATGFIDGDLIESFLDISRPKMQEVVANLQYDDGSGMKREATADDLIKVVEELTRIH
T2 sequence (Q9UKT9 whole entry): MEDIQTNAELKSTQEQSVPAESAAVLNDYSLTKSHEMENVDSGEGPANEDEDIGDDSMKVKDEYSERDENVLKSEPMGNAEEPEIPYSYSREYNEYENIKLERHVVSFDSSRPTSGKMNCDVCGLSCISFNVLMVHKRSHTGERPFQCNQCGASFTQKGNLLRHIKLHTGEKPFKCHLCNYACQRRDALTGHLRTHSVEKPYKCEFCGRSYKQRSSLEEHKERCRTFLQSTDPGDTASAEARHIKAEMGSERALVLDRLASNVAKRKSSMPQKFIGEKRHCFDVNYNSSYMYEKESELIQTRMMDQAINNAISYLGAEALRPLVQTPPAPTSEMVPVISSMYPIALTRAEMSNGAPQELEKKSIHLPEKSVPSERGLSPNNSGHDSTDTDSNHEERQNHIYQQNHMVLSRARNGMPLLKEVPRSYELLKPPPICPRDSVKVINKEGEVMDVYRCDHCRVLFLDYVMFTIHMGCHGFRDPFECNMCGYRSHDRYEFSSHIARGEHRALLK
T2 sequence (Q96SW2 whole entry): as the sequence (Q96SW2 whole entry) above
T2 sequence (Q16531 whole entry partner): as the sequence (Q16531 whole entry partner) above

- IKZF1 degradation rate (%) (IKZF1): 26.7 ± 2.4%
- IKZF3 degradation rate (%) (IKZF3): 8.4 ± 6.0%
- CL_pred ([1]; intravenous injection 1 mg/kg): 6.7 mL/min/kg
- Vss_pred ([1]; intravenous injection 1 mg/kg): 4.6 L/kg
- AUC(0-t) ([1]; male, SD, mouse, intravenous injection 1 mg/kg, plasma): 2150 ng·h/mL
- bioavailability ([1]; male, SD, mouse, plasma, po, gavage 100 mg/kg vs intravenous 1 mg/kg): 14.2%
- AUC(0-t) [1, 2]: 30500 ng·h/mL
- Cmax [1, 2]: 1860 ng/mL
SMILES: CC(C)(O)c1cc2nn(C3CCN(CCCC4CCN(c5ccc6c(c5)C(=O)N(C5CCC(=O)NC5=O)C6=O)CC4)CC3)cc2cc1NC(=O)c1cccc(C(F)(F)F)n1 (centres unmarked) [Example 6, N-(2-(1-(3-(1-(2-(2,6-dioxopiperidin-3-yl)-1,3-dioxoisoindolin-5-yl)piperidin-4-yl)propyl)piperidin-4-yl)-6-(2-hydroxyprop-2-yl)-2H-indazol-5-yl)-6-(trifluoromethyl) pyridinecarboxamide]
